Results from publication PMC11061149, “Protein mimetic 2D FAST rescues alpha synuclein aggregation mediated early and post disease Parkinson’s phenotypes” (Nature Communications, 2024).
“And” between values parts separate entries of the source, which are not always exact repeats. Identical values can stand only once.

Key:
[1] = biological target: T1, αS monomer-αS fibers interaction (Homo sapiens, UniProt P37840); assay: HSQC NMR of 15N-αS monomer with αS fibers with or without NS132; format: binding; conditions: 70 μM 15N-αS + αS fibers, equimolar NS132, 24 h
T1 construct: purchased rpeptide, Bogart, GA
Method: We also employed 2D NMR HSQC for atomic-level insights into fibers-catalyzed aggregation of αS and its inhibition by NS132. […] We have also shown that NS132 specifically interacts with the N-terminal residues of αS. […] We incubated preformed fibers of αS with 70 μM ^15N-^1H-uniformly labeled αS monomer and used HSQC NMR to characterize the kinetics of fibers-catalyzed aggregation of αS on a molecular level. […] Also, αS fibers interact specifically with four αS sequences on the N-terminus, including residues 3-23, 40-45, 49-59, and 75-84 (Fig. 4b,c). There was an induction of a secondary structure in the αS monomer, indicated by the spreading of the amide peaks toward the ^1H resonances (Fig. 4c, green). […] Even after 40 h, there were fewer and smaller changes in the volume intensity of the amide peaks of ^15N-^1H-uniformly labeled αS monomer in the presence of NS132 (Fig. 4f).
(§1) For the HSQC experiments titrating NS132 into ^15N αS, the same experimental conditions were used as above. Incrementally, NS132 was added to a single ^15N αS solution, mixed, kept at r.t. for 10 min and HSQC was recorded under the conditions stated above. For HSQC experiments containing pre-formed fibrils (PFF) of αS, 5.4 eq. of PFF solution (500 μM) was added to monomeric ^15N αS solution, and the spectra was recorded as previously stated.

[2] = biological target: T2, 15N-labeled αS monomer (Homo sapiens, UniProt P37840); assay: 2D 1H-15N HSQC NMR of 15N-labeled αS with ligand; format: binding; conditions: 70 µM 15N-αS + equimolar ligand, V/V0
T2 construct: purchased rpeptide, Bogart, GA
Method: A solution of ^15N αS was prepared by resuspending 1 mg of uniformly labeled ^15N αS (rpeptide, Bogart, GA) in 1 mL Milli-Q water to yield a 70 μM αS solution in 20 mM Tris-HCl pH 7.4, 100 mM NaCl. The protein was buffer exchanged to Milli-Q water, lyophilized, and stored at –80 °C. For the preparation of NMR experiments, the lyophilized ^15N αS powder was dissolved in the NMR buffer (300 μL, 20 mM NaPO4 pH 6.4, 5% D2O, v/v) to make a final concentration of 70 μM. The protein concentration was confirmed with a NanoDrop One (Thermo Scientific, Waltham, MA) at 280 nm using an extinction coefficient of 5960 M^-1cm^-1. The solutions were transferred into Shigemi BMS-005 NMR tube (Shigemi, Tokyo, Japan) and the two-dimensional ^1H-^15N HSQC NMR experiments were performed on a 600 MHz Bruker Avance Neo (CU Anschutz, NMR core facility, CO) instrument equipped with a triple resonance HCN cryoprobe. Data was collected at 12 °C on Topspin 4.9.0 software (Bruker, Billerica, MA). The HSQC spectra were recorded using a data matrix consisting of 1024 (t2, ^1H) × 160 (t1, ^15N) complex points. Resonance assignments were determined utilizing a previous publication[83] and the data analysis was performed using MestReNova software.
as §1

[3] = test system: NL5901 worms (αS-YFP in body wall muscle cells); assay: Confocal counting of αS-YFP inclusions in NL5901 worms; format: in vivo, C. elegans; conditions: for number of inclusions in NL5901, individual trials: 50 µM ligand; for number of inclusions: 50 μM ligand
Method: In NL5901 strain, αS-YFP is expressed in the muscle cells of worms. The aggregates of αS-YFP are visible from day 4 and the maximum number of αS-YFP aggregates are visible round day 8 and day 9. The standard worm conditions were used for the culturing of various worm strains. […] The cultures of OP50 were prepared by incubating 50 mL of LB medium with OP50 18 h at 37 °C and the final OD value was adjusted to 0.5 at 600 nm. The NGM plates were prepared by treating them with 350 µL OP50 and leaving the plates at 20 °C for 3 days. […] The NGM plates (with NGM media) were used for the treatment of different worm strains with ligands. […] The NGM plates treated with ligands were prepared and used within 24 h. We used these plates to treat various disease strains for different assays. This experiment was performed based on previously described protocols with slight modifications[24],[65],[88]. […] On day two, the worms were divided into two batches. […] On day four, the ligand (10–50 µM, stock conc. = 10 mM in DMSO, DMSO from 0.1–0.5%, v/v) was added again to PLATE 3. […] For each condition, six biological replicates were performed and at least 10 technical replicates were used for each biological replicate. […] (n = 6 independent experiments and each n consisted of a minimum of ten technical replicates).

Cc1ccc(NC(=O)c2ccc(NC(=O)c3ccc([N+](=O)[O-])c(NCCc4c[nH]c5ccccc45)n3)c(NCC3CCCCC3)n2)c(OCC(=O)O)n1 [NS132]
change in the volume of the amide peaks of 15N-αS monomer with αS fibers, in words [1]: no significant change | Change in volume of peaks, αS residue A11 [2]: 0.12 | Change in volume of peaks, αS residue A17 [2]: 0.33 | Change in volume of peaks, αS residue A18 [2]: 0.55 | Change in volume of peaks, αS residue A19 [2]: 0.15 | Change in volume of peaks, αS residue A56 [2]: 0.13 | Change in volume of peaks, αS residue A78 [2]: 0.03 | Change in volume of peaks, αS residue A89 [2]: 0.12 | Change in volume of peaks, αS residue A90 [2]: 0.08 | Change in volume of peaks, αS residue A107 [2]: 0.04 | Change in volume of peaks, αS residue E13 [2]: 0.05 | Change in volume of peaks, αS residue E20 [2]: 0.17 | Change in volume of peaks, αS residue E46 [2]: 0.14 | Change in volume of peaks, αS residue G14 [2]: 0.1 | Change in volume of peaks, αS residue G31 [2]: 0.08 | Change in volume of peaks, αS residue G36 [2]: 0.1 | Change in volume of peaks, αS residue G41 [2]: 0.31 | Change in volume of peaks, αS residue G68 [2]: 0.06 | Change in volume of peaks, αS residue G93 [2]: 0.04 | Change in volume of peaks, αS residue H50 [2]: 0.52 | Change in volume of peaks, αS residue K10 [2]: 0.12 | Change in volume of peaks, αS residue K12 [2]: 0.77 | Change in volume of peaks, αS residue K43 [2]: 0.42 | Change in volume of peaks, αS residue L38 [2]: 0.05 | Change in volume of peaks, αS residue L100 [2]: 0.09 | Change in volume of peaks, αS residue S42 [2]: 0.46 | Change in volume of peaks, αS residue S129 [2]: 0.14 | Change in volume of peaks, αS residue T22 [2]: 0.03 | Change in volume of peaks, αS residue T59 [2]: 0.26 | Change in volume of peaks, αS residue T64 [2]: 0.08 | Change in volume of peaks, αS residue T75 [2]: 0.22 | Change in volume of peaks, αS residue V3 [2]: 0.04 | Change in volume of peaks, αS residue V15 [2]: 0.61 | Change in volume of peaks, αS residue V16 [2]: 0.09 | Change in volume of peaks, αS residue V37 [2]: 0.08 | Change in volume of peaks, αS residue V40 [2]: 0.13 | Change in volume of peaks, αS residue V66 [2]: 0.04 | Change in volume of peaks, αS residue V77 [2]: 0.16 | Change in volume of peaks, αS residue V82 [2]: 0.09 | Change in volume of peaks, αS residue Y39 [2]: 0.21 | number of inclusions in NL5901, individual trials ([3]; Day 8): 3 and 2 and 6 and 5 and 9 and 4 and 7 and 8 | number of inclusions in NL5901, individual trials ([3]; Day 9): 5 and 6 and 7 and 8 and 11 and 10 and 3 and 9 and 4 | number of inclusions ([3]; day eight): ~ 5 inclusions/worm | number of inclusions ([3]; day nine): ~ 6.6 inclusions/worm
